From US20230303513A1, “OXOPYRROLIDINE UREA FPR2 AGONISTS” (BRISTOL-MYERS SQUIBB COMPANY, priority 2020, published 2023)

Key:
[1] = molecular target: human FPR2 (Homo sapiens (Human), UniProt P25090); experiment: FPR2 cyclic adenosine monophosphate (cAMP) assay; assay type: cell-based; settings: CHO cells overexpressing human FPR2; forskolin 5 μM, IBMX 200 μM; inhibition of cAMP production, HTRF; read-out: hFPR2 cAMP2 EC50
From the text: (§1) N-formyl peptide receptors (FPRs) are a family of chemo attractant receptors that facilitate leukocyte response during inflammation. FPRs belong to the seven-transmembrane G protein-coupled receptor superfamily and are linked to inhibitory G-proteins (Gi). Three family members (FPR1, FPR2 and FPR3) have been identified in humans and are predominantly found in myeloid cells with varied distribution and have also been reported in multiple organs and tissues. After agonist binding, the FPRs activate a multitude of physiological pathways, such as intra cellular signaling transduction, Ca^21 mobilization and transcription. The family interacts with a diverse set of ligands that includes proteins, polypeptides and fatty acid metabolites which activate both pro-inflammatory and pro-resolution downstream responses. FPR2 and FPR1 Cyclic Adenosine Monophosphate (cAMP) Assays were used to measure the activity of the compounds in this patent.
(§2) FPR2 and FPR1 Cyclic Adenosine Monophosphate (cAMP) Assays. A mixture of forskolin (5 μM final for FPR2 or 10 μM final for FPR1) and IBMX (200 μM final) were added to 384-well Proxiplates (Perkin-Elmer) pre-dotted with test compounds in DMSO (1% final) at final concentrations in the range of 0.020 nM to 100 μM. Chinese Hamster Ovary cells (CHO) overexpressing human FPR1 or human FPR2 receptors were cultured in F-12 (Ham's) medium supplemented with 10% qualified FBS, 250 μg/ml zeocin and 300 μg/ml hygromycin (Life Technologies). Reactions were initiated by adding 2,000 human FPR2 cells per well or 4,000 human FPR1 cells per well in Dulbecco's PBS (with calcium and magnesium) (Life Technologies) supplemented with 0.1% BSA (Perkin-Elmer). The reaction mixtures were incubated for 30 min at room temperature. The level of intracellular cAMP was determined using the HTRF HiRange cAMP assay reagent kit (Cisbio) according to manufacturer's instruction. Solutions of cryptate conjugated anti-cAMP and d2 flurorophore-labelled cAMP were made in a supplied lysis buffer separately. Upon completion of the reaction, the cells were lysed with equal volume of the d2-cAMP solution and anti-cAMP solution. After a 1-h room temperature incubation, time-resolved fluorescence intensity was measured using the Envision (Perkin-Elmer) at 400 nm excitation and dual emission at 590 nm and 665 nm. A calibration curve was constructed with an external cAMP standard at concentrations ranging from 1 μM to 0.1 μM by plotting the fluorescent intensity ratio from 665 nm emission to the intensity from the 590 nm emission against cAMP concentrations. The potency and activity of a compound to inhibit cAMP production was then determined by fitting to a 4-parametric logistic equation from a plot of cAMP level versus compound concentrations.

[2] = molecular target: human FPR1 (Homo sapiens (Human), UniProt P21462); experiment: FPR1 cyclic adenosine monophosphate (cAMP) assay; assay type: cell-based; settings: CHO cells overexpressing human FPR1; forskolin 10 μM, IBMX 200 μM; inhibition of cAMP production, HTRF; read-out: hFPR1 cAMP EC50
human FPR1, sequence (P21462 whole entry): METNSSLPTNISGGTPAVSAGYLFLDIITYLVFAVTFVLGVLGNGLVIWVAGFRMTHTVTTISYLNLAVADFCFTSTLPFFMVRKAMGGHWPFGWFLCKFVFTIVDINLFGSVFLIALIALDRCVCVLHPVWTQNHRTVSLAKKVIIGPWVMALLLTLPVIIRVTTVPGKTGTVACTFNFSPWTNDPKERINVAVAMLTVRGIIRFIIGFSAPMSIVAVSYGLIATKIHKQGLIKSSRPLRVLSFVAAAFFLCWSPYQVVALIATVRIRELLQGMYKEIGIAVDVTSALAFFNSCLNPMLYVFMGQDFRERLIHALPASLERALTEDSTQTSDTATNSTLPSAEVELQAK
From the text: as §1, §2

human FPR2, sequence (P25090 whole entry): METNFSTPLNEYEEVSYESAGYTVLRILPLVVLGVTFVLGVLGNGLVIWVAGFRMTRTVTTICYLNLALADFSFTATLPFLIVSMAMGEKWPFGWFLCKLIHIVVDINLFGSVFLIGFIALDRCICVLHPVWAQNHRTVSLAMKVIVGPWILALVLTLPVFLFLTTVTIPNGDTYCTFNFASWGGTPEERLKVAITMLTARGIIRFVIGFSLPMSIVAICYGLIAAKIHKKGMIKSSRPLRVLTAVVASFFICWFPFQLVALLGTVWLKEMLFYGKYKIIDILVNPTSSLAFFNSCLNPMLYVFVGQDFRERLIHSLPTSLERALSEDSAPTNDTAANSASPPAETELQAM

EC50 [1] [nM]	EC50 [2] [nM]	Compound
11	1	COc1cc(F)c([C@@H]2CN(c3cccn(CC(O)C(F)(F)F)c3=O)C(=O)[C@H]2NC(=O)NC2CCc3cc(OC)ccc3C2)c(F)c1 (some centres unmarked) [Example 80]
0.4	0.1	CCn1cccc(N2C[C@@H](c3ccc(OC)cc3)[C@H](NC(=O)NC3CCc4cc(Cl)ccc4C3)C2=O)c1=O (some centres unmarked) [Example 6]
4	3.7	COc1cc(F)c([C@H]2[C@H](NC(=O)NC3CCc4cc(OC)ccc4C3)C(=O)N(c3cccn(CCO)c3=O)[C@H]2C)c(F)c1 (single isomer, unassigned) [Example 90]
14	1700	COc1cc(F)c([C@@H]2CN(c3nccc(NCC4CCCO4)c3C(F)(F)F)C(=O)[C@H]2NC(=O)N[C@H]2CC[C@H](C(F)F)CC2)c(F)c1 (some centres unmarked) [Example 93]
12	77	COc1cc(F)c([C@H]2[C@H](NC(=O)N[C@H]3CC[C@H](C(F)F)CC3)C(=O)N(c3ncccc3OC(C)C)[C@H]2C)c(F)c1 [Example 51]
4	5.3	COc1cc(F)c([C@@H]2CN(c3cccn(C(F)F)c3=O)C(=O)[C@H]2NC(=O)NC2CCc3cc(OC)ccc3C2)c(F)c1 (single isomer, unassigned) [Example 95]
13	593	CCn1cccc(N2C[C@@H](c3c(F)cc(OC)cc3F)[C@H](NC(=O)NC3CCc4cc(OC)ccc4C3(C)C)C2=O)c1=O (some centres unmarked) [Example 52]
6	7.1	COc1cc(F)c([C@@H]2CN(c3ncccc3C(F)(F)F)C(=O)[C@H]2NC(=O)NC2CCc3cc(Cl)ccc3C2)c(F)c1 (some centres unmarked) [Example 43]
39	5000	COc1cc(F)c([C@@H]2CN(c3nccc(NCC(C)(C)O)c3C(F)(F)F)C(=O)[C@H]2NC(=O)N[C@H]2CC[C@H](C(F)F)CC2)c(F)c1 [Example 104]
4.2	0.3	COCCn1cccc(N2C[C@@H](c3c(F)cc(OC)cc3F)[C@H](NC(=O)NC3CCc4cc(OC)ccc4C3)C2=O)c1=O (some centres unmarked) [Example 34]
0.7	6	CCn1cccc(N2C[C@@H](c3ccc(OC)cc3)[C@H](NC(=O)NC3CCc4cc(Cl)ccc4C3)C2=O)c1=O (some centres unmarked) [Example 9]
29	220	COc1cc(F)c([C@@H]2CN(c3ncccc3C(F)(F)F)C(=O)[C@H]2NC(=O)NC2CCc3cc(OC)ccc3C2(C)C)c(F)c1 (some centres unmarked) [Example 58]
320	> 1000	COc1cc(F)c([C@@H]2CN(c3nccc(NCC4CCOC4)c3C(F)(F)F)C(=O)[C@H]2NC(=O)N[C@H]2CC[C@H](C(F)F)CC2)c(F)c1 (single isomer, unassigned) [Example 73]
5.9	1.5	COCC(CO)n1cccc(N2C[C@@H](c3c(F)cc(OC)cc3F)[C@H](NC(=O)NC3CCc4cc(OC)ccc4C3)C2=O)c1=O (some centres unmarked) [Example 81]
0.5	0.7	COCCn1ccc(C)c(N2C[C@@H](c3c(F)cc(OC)cc3F)[C@H](NC(=O)NC3CCc4cc(OC)ccc4C3)C2=O)c1=O (some centres unmarked) [Example 7]
1.4	0.3	CCn1nccc(N2C[C@@H](c3c(F)cc(OC)cc3F)[C@H](NC(=O)NC3CCc4cc(OC)ccc4C3)C2=O)c1=O (single isomer, unassigned) [Example 86]
33	17	CCn1cccc(N2C[C@@H](c3c(F)cc(OC)cc3F)[C@H](NC(=O)NC3CCc4cc(OC)ccc4C3(C)C)C2=O)c1=O (some centres unmarked) [Example 61]
1.4	0.8	COc1cc(F)c([C@@H]2CN(c3cccn(CCO)c3=O)C(=O)[C@H]2NC(=O)NC2CCc3cc(Cl)ccc3C2)c(F)c1 (some centres unmarked) [Example 14]
20	40	COCC(CO)n1cccc(N2C[C@@H](c3c(F)cc(OC)cc3F)[C@H](NC(=O)NC3CCc4cc(OC)ccc4C3)C2=O)c1=O (single isomer, unassigned) [Example 2]
1.5	13.2	COc1cc(F)c([C@H]2[C@H](NC(=O)NC3CCc4cc(OC)ccc4C3)C(=O)N(c3ncccc3OC)[C@H]2C)c(F)c1 (some centres unmarked) [Example 15]

EC50 [1] [nM]	EC50 [2] [nM]	Compound
27	4800	COc1cc(F)c([C@@H]2CN(c3nccc(NC4CCOCC4)c3C(F)(F)F)C(=O)[C@H]2NC(=O)N[C@H]2CC[C@H](C(F)F)CC2)c(F)c1 [Example 68]
7.3	> 10000	COc1cc(F)c([C@@H]2CN(c3ncccc3C(F)(F)F)C(=O)[C@H]2NC(=O)NC2CCc3cc(OC)ccc3C2)c(F)c1 (some centres unmarked) [Example 47]
54	1100	COc1cc(F)c([C@H]2[C@H](NC(=O)N[C@H]3CC[C@H](C(F)F)CC3)C(=O)N(c3cccn(CCO)c3=O)[C@H]2C)c(F)c1 [Example 71]
26	1.2	COc1cc(F)c([C@@H]2CN(c3c(OC)ccn(C)c3=O)C(=O)[C@H]2NC(=O)NC2CCc3cc(OC)ccc3C2)c(F)c1 (some centres unmarked) [Example 57]
9.1	> 10000	COc1cc(F)c([C@@H]2CN(c3nccc(N4CCN(S(C)(=O)=O)CC4)c3C(F)(F)F)C(=O)[C@H]2NC(=O)N[C@H]2CC[C@H](C(F)F)CC2)c(F)c1 [Example 88]
1.8	0.2	COc1cc(F)c([C@H]2[C@H](NC(=O)NC3CCc4cc(OC)ccc4C3)C(=O)N(c3ncccc3OC)[C@H]2C)c(F)c1 (some centres unmarked) [Example 18]
5.2	1800	COCCNc1ccnc(N2C[C@@H](c3c(F)cc(OC)cc3F)[C@H](NC(=O)N[C@H]3CC[C@H](C(F)F)CC3)C2=O)c1C(F)(F)F [Example 69]
1.6	> 10000	COc1cc(F)c([C@@H]2CN(c3nccc(N4CC(C)(O)C4)c3C(F)(F)F)C(=O)[C@H]2NC(=O)N[C@H]2CC[C@H](C(F)F)CC2)c(F)c1 [Example 101]
4	4.2	COc1cc(F)c([C@@H]2CN(c3ncccc3C(F)(F)F)C(=O)[C@H]2NC(=O)NC2COc3cc(OC)ccc3C2)c(F)c1 (some centres unmarked) [Example 33]
3.3	2.4	COCCn1cccc(N2C(=O)[C@@H](NC(=O)NC3CCc4cc(OC)ccc4C3)[C@H](c3c(F)cc(OC)cc3F)[C@@H]2C)c1=O (some centres unmarked) [Example 29]
9.9	0.8	COCC(CO)n1cccc(N2C[C@@H](c3c(F)cc(OC)cc3F)[C@H](NC(=O)NC3CCc4cc(OC)ccc4C3)C2=O)c1=O (some centres unmarked) [Example 82]
19	8.8	COCCn1cccc(N2C[C@@H](c3c(F)cc(OC)cc3F)[C@H](NC(=O)NC3CCc4cc(OC)ccc4C3(C)C)C2=O)c1=O (some centres unmarked) [Example 54]
1.4	0.3	COc1cc(F)c([C@@H]2CN(c3c(C)ccn(CCO)c3=O)C(=O)[C@H]2NC(=O)NC2CCc3cc(OC)ccc3C2)c(F)c1 (single isomer, unassigned) [Example 84]
4.5	1.3	COCCn1ccc(OC)c(N2C[C@@H](c3c(F)cc(OC)cc3F)[C@H](NC(=O)NC3CCc4cc(Cl)ccc4C3)C2=O)c1=O (some centres unmarked) [Example 38]
0.6	0.5	COc1cc(F)c([C@@H]2CN(c3c(OC)ccn(C)c3=O)C(=O)[C@H]2NC(=O)NC2CCc3cc(Cl)ccc3C2)c(F)c1 (some centres unmarked) [Example 8]
1.7	4.7	COCCn1cccc(N2C[C@@H](c3ccc(OC)cc3)[C@H](NC(=O)NC3CCc4cc(Cl)ccc4C3)C2=O)c1=O (some centres unmarked) [Example 16]
1.6	1.2	COc1cc(F)c([C@@H]2CN(c3cccn(C(F)F)c3=O)C(=O)[C@H]2NC(=O)NC2CCc3cc(OC)ccc3C2)c(F)c1 (single isomer, unassigned) [Example 94]
670	3500	COc1cc(F)c([C@@H]2CN(c3nccc(N4CCOCC4)c3C(F)(F)F)C(=O)[C@H]2NC(=O)N[C@H]2CC[C@H](C(F)F)CC2)c(F)c1 [Example 108]
7.2	> 5000	COc1cc(F)c([C@@H]2CN(c3nccc(NCCS(C)(=O)=O)c3C(F)(F)F)C(=O)[C@H]2NC(=O)N[C@H]2CC[C@H](C(F)F)CC2)c(F)c1 [Example 98]

Compound	EC50 [1] [nM]	EC50 [2] [nM]
COCCn1cccc(N2C(=O)[C@@H](NC(=O)NC3CCc4cc(OC)ccc4C3(C)C)[C@H](c3c(F)cc(OC)cc3F)[C@@H]2C)c1=O (some centres unmarked) [Example 62]	36	23
